Data published in patent US20040162263A1, “Pharmaceutical formulations targeting specific regions of the gastrointesinal tract” (priority 2002, published 2004).

What was measured:
[1] = system: fetal hemoglobin levels (Hb F); settings: orally 8 mg/kg, repeatedly phlebotomized baboon; cited from earlier work
L1210 leukemic mice = settings: cited from earlier work
in vivo = settings: dog
Protocol: Pentostatin was administered to IVAP beagle dogs (n=3) at 0.2 mg/kg via intravenous, oral and through previously implanted intestinal ports (jejunum, ileum and colon). Extravascular administration of pentostatin was done in saline water for infusion or in a pH=7 phosphate buffer solution to control the intestinal pH. Blood samples were taken systemic and through a port in the portal vein, plasma separated and kept frozen at −20° C. until analysis.
Six adult male beagle dogs (obtained from Summit Ridge Farms, Susquehanna, Pa.; between the ages of 1 and 5 years and weighed between 9 and 16 kg) were prepared with indwelling catheters in the Upper and Lower Small Intestines (USI and LSI), Colon (IC) and Portal Vein (PV) and were dosed with pentostatin at 0.2 mg/kg. The drug formulation was delivered either orally, intraveneously or, in most cases, through the indwelling ports and blood samples were drawn to determine the pharmacokinetics of each permutation. Systemic blood samples were collected from acutely placed IV catheters in the brachial vein, while PV samples were collected through the indwelling port and catheter. All blood samples were spun down, the plasma decanted, frozen and stored at −70 deg Celsius before subject to analysis.
The IVAP dog is prepared with indwelling catheters attached to subcutaneous ports (Titanium Vascular Access Portsg from Access Technologies in Skokie, Ill.) for delivery of drug formulations directly to various parts of the Gastrointestinal Tract. […] In addition, collecting blood samples directly from the portal vein during parenteral as well as oral and intestinal delivery can be combined with direct portal delivery studies to tweeze apart the first pass effects of both liver and intestinal cell enzymatic degradation effects on the drug being tested. Next, delivery of various formulations under different conditions can help in the development of effective oral delivery systems. Finally, delivery of absorption enhancers at various intervals, prior to the delivery of the drug, can be used to determine the recovery time of intestinal wall integrity following dosing with a particular formulation.
IVAP dogs are fitted with three intestinal catheters, in addition to a portal vein catheter. Following induction of general anesthesia, the animal is placed in a supine position, scrubbed and prepped with betadine solution and draped under sterile conditions. A vertical midline incision is made through the skin and the abdominal cavity is entered. A 5F Heparin Coated CBAS® tubing, is inserted into the portal vein and secured with a purse string of 7-0 prolene suture. A small square of Surgicel® is placed over the insertion site and the fascia is closed over it to prevent leakage or dislodging of the tubing. The Upper Small Intestine (USI) port tubing is inserted 10 cm distal to the ligament of Treitz. The small bowel is then measured from the pyloric sphincter to the ileocecal valve and the Lower Small Intestine (LSI) port tubing is inserted one third of the way back from the ileocecal valve. The colon tubing is inserted 10 cm distal to the ileocecal valve (Colon). 7F Sylastic® tubing is used for each intestinal catheter. […] The tubings are secured with a silk “purse-string” suture and the modified Witzel Tunnel technique. After placement of the tubes, the bowel is secured to the abdominal wall and the proximal ends of the tubings are tunneled out of the abdominal cavity and into a subcutaneous pocket on the caudal aspect of the right chest, along with the PV catheter. The abdominal incision is closed in two layers. The Linea Alba is approximated with 0 Vicryl and the skin is closed with 2-0 Vicryl.
In case of IV administration, the drug is dissolved in normal sterile saline to a concentration of 1 mg/ml and is passed through a […] sterilizing filter prior to administration to the brachial vein.

[2] = Physico-chemical properties of pentostatin (solubility, stability); type: physicochemical

| SMILES | elevation in the fetal hemoglobin levels (Hb F) [1] | activity parenteral versus oral (L1210 leukemic mice) | AUC2/AUC1 (portal vein) (in vivo; po) | Relative bioavailability in reference to oral (in vivo; male, beagle) [%] | Ratio Treat2/Treat1 of systemic bioavailability (in vivo; male, beagle, po) | bioavailability % change, AVERAGE (in vivo; male, beagle, po) [%] | decrease in the systemic pentostatin bioavailability (in vivo; male, beagle, po) [%] | Mean systemic AUC0-inf (in vivo; male, beagle, po, 0.2 mg/kg) | bioavailability (in vivo; male, beagle, po, 0.2 mg/kg, Individual bioavailability % change) [%] | AUC(0-inf) (in vivo; male, beagle, po, 0.2 mg/kg, Mean systemic AUC0-inf) [ng·h/mL] | bioavailability (in vivo; male, beagle, po, 0.2 mg/kg, Relative bioavailability calculated in portal vein) [%] | bioavailability (in vivo; male, beagle, po, 0.2 mg/kg, Relative bioavailability in reference to oral) [%] | bioavailability (in vivo; male, beagle, po, 0.2 mg/kg, pH 7, systemic bioavailability (F), mean) [%] | bioavailability (in vivo; male, beagle, po, 0.2 mg/kg, systemic bioavailability (F), mean) [%] | solubility in ethanol and methanol [2] | stability in aqueous solution ([2]; 1 mg/ml) | solid stability at high temperature and humidity ([2]; 37° C., 75% RH) | solubility in water ([2]; at various pHs) | hygroscopicity ([2]; crystalline form) | solid stable ([2]; up to temperatures of 45° C.) |
| --- | --- | --- | --- | --- | --- | --- | --- | --- | --- | --- | --- | --- | --- | --- | --- | --- | --- | --- | --- | --- |
| Nc1ncn([C@@H]2O[C@H](CO)[C@@H](O)[C@H]2O)c(=O)n1 [5-azacytidine] | no elevation | more active when administered parenterally than orally | – | – | – | – | – | – | – | – | – | – | – | – | – | – | – | – | – | – |
| OC[C@H]1O[C@@H](n2cnc3c2NC=NC[C@H]3O)C[C@@H]1O [pentostatin, 2′-deoxycoformycin] | – | – | 1.50 | 620 | 0.51 | −26 | 50 | 10,425 ± 6,652 (64) ng × min/ml | 5 | 340 | 100 | 100 | 14.3 | 28 | slightly soluble | most stable at pH 7 or above and degrade quickly at pHs lower than 4 | loses the potency | freely soluble | not hygroscopic | at least 12 months |
